Laboratory results: ChEMBL document CHEMBL2385072, “Development of oleanane-type triterpenes as a new class of HCV entry inhibitors” (J Med Chem, 2013)

Assays:
Settings in all cases: HEK-293T
[1] = test system: Vesicular stomatitis virus; test: Antiviral activity against pseudo VSV infected in human 293T cells assessed as inhibition of vesicular stromatis G protein pseudo particles entry at 5 uM after 72 hrs by luciferase reporter gene assay; assay type: functional
[2] = test system: Vesicular stomatitis virus; test: Antiviral activity against pseudo VSV infected in human 293T cells assessed as inhibition of vesicular stromatis G protein pseudo particles entry at 1 uM after 72 hrs by luciferase reporter gene assay; assay type: functional
Hepatitis C virus [3] = test: Antiviral activity against pseudo HCV infected in human 293T cells assessed as inhibition of HCV pseudo particles entry at 1 uM after 72 hrs by luciferase reporter gene assay; assay type: functional, Hepacivirus hominis
Hepatitis C virus [4] = test: Antiviral activity against pseudo HCV infected in human 293T cells assessed as inhibition of HCV pseudo particles entry at 5 uM after 72 hrs by luciferase reporter gene assay; assay type: functional, Hepacivirus hominis

| SMILES | inhibition at 5 µM [1] [%] | inhibition at 1 µM [2] [%] | inhibition at 1 µM (Hepatitis C virus [3]) [%] | inhibition at 5 µM (Hepatitis C virus [4]) [%] |
| --- | --- | --- | --- | --- |
| CC(=O)O[C@@H]1[C@H](OC(=O)[C@]23CCC(C)(C)C[C@H]2C2=CC[C@@H]4[C@@]5(C)CC[C@H](O)C(C)(C)[C@@H]5CC[C@@]4(C)[C@]2(C)C[C@H]3O)OC[C@@H](OC(C)=O)[C@H]1OC(C)=O | 20.1 | 17.1 | 19.3 | 60.6 |
| CC1(C)CC[C@]2(C(=O)NCCCNC(=O)[C@]34CCC(C)(C)C[C@H]3C3=CC[C@@H]5[C@@]6(C)CC[C@H](O)C(C)(C)[C@@H]6CC[C@@]5(C)[C@]3(C)C[C@H]4O)[C@H](O)C[C@]3(C)C(=CC[C@@H]4[C@@]5(C)CC[C@H](O)C(C)(C)[C@@H]5CC[C@]43C)[C@@H]2C1 | 27.6 | 18.7 | 44.6 | 58.2 |
| COC(=O)[C@]12CCC(C)(C)C[C@H]1C1=CC[C@@H]3[C@@]4(C)CC[C@H](O)C(C)(C)[C@@H]4CC[C@@]3(C)[C@]1(C)C[C@H]2OC | 9.9 | 7.3 | 17.5 | 33.7 |
| CC(=O)OC[C@H]1O[C@@H](n2cc(CNC(=O)[C@]34CCC(C)(C)C[C@H]3C3=CC[C@@H]5[C@@]6(C)CC[C@H](O)C(C)(C)[C@@H]6CC[C@@]5(C)[C@]3(C)C[C@H]4O)nn2)[C@H](OC(C)=O)[C@@H](OC(C)=O)[C@@H]1OC(C)=O | 12.5 | -9.1 | 20.3 | 89.7 |
| CC1(C)CC[C@]2(C(=O)O[C@@H]3O[C@H](CO)[C@@H](O[C@H]4O[C@H](CO)[C@@H](O)[C@H](O)[C@H]4O)[C@H](O)[C@H]3O)[C@H](O)C[C@]3(C)C(=CC[C@@H]4[C@@]5(C)CC[C@H](O)C(C)(C)[C@@H]5CC[C@]43C)[C@@H]2C1 | 21.9 | 21.6 | 36.4 | 43.7 |
| CC1(C)CC[C@]2(C(=O)O[C@@H]3O[C@H](CO)[C@@H](O)[C@H](O)[C@H]3O)[C@H](O)C[C@]3(C)C(=CC[C@@H]4[C@@]5(C)CC[C@H](O)C(C)(C)[C@@H]5CC[C@]43C)[C@@H]2C1 | 5.6 | 12.9 | 30.6 | 67.5 |
| CC1(C)CC[C@]2(C(=O)O[C@@H]3OC[C@@H](O)[C@H](O)[C@H]3O)[C@H](O)C[C@]3(C)C(=CC[C@@H]4[C@@]5(C)CC[C@H](O)C(C)(C)[C@@H]5CC[C@]43C)[C@@H]2C1 | 13 | 36.5 | 33.8 | 77.7 |
| COC(=O)[C@]12CCC(C)(C)C[C@H]1C1=CC[C@@H]3[C@@]4(C)CC[C@H](O)C(C)(C)[C@@H]4CC[C@@]3(C)[C@]1(C)C[C@H]2OCc1ccccc1 | -3.9 | 1.6 | 4.6 | 5.8 |
| CC1(C)CC[C@]2(C(=O)NCc3cn([C@@H]4O[C@H](CO)[C@@H](O[C@@H]5O[C@H](CO)[C@@H](O)[C@H](O)[C@H]5O)[C@H](O)[C@H]4O)nn3)[C@H](O)C[C@]3(C)C(=CC[C@@H]4[C@@]5(C)CC[C@H](O)C(C)(C)[C@@H]5CC[C@]43C)[C@@H]2C1 | 50.5 | 26.6 | 15.2 | 11.8 |
| CC(=O)O[C@@H]1[C@@H](OC(C)=O)[C@H](OC(=O)[C@]23CCC(C)(C)C[C@H]2C2=CC[C@@H]4[C@@]5(C)CC[C@H](O)C(C)(C)[C@@H]5CC[C@@]4(C)[C@]2(C)C[C@H]3O)OC[C@H]1OC(C)=O | 21.7 | 20.1 | 17.5 | 70.7 |
| CC1(C)CC[C@]2(C(=O)O[C@@H]3OC[C@@H](O)[C@@H](O)[C@@H]3O)[C@H](O)C[C@]3(C)C(=CC[C@@H]4[C@@]5(C)CC[C@H](O)C(C)(C)[C@@H]5CC[C@]43C)[C@@H]2C1 | 5.8 | 15.6 | 34.7 | 54.6 |
| COC(=O)[C@]12CCC(C)(C)C[C@H]1C1=CC[C@@H]3[C@@]4(C)CC[C@H](O[Si](C)(C)C(C)(C)C)C(C)(C)[C@@H]4CC[C@@]3(C)[C@]1(C)C[C@H]2O | 37.4 | 27.4 | 44.3 | 27.8 |
| CC1(C)CC[C@]2(C(=O)O)[C@H](OCc3ccccc3)C[C@]3(C)C(=CC[C@@H]4[C@@]5(C)CC[C@H](OCc6ccccc6)C(C)(C)[C@@H]5CC[C@]43C)[C@@H]2C1 | 30.6 | 28.8 | 5.5 | 28.2 |
| CC(=O)OC[C@H]1O[C@@H](OC(=O)[C@]23CCC(C)(C)C[C@H]2C2=CC[C@@H]4[C@@]5(C)CC[C@H](O)C(C)(C)[C@@H]5CC[C@@]4(C)[C@]2(C)C[C@H]3O)[C@H](OC(C)=O)[C@@H](OC(C)=O)[C@H]1OC(C)=O | 30.7 | 29.3 | 43.4 | 81.6 |
| COC(=O)[C@]12CCC(C)(C)C[C@H]1C1=CC[C@@H]3[C@@]4(C)CC[C@H](O[Si](C)(C)C(C)(C)C)C(C)(C)[C@@H]4CC[C@@]3(C)[C@]1(C)CC2=O | 40.2 | 45.3 | 11.5 | -3.8 |
| CC(=O)OC[C@H]1O[C@@H](n2cc(CNC(=O)[C@]34CCC(C)(C)C[C@H]3C3=CC[C@@H]5[C@@]6(C)CC[C@H](O)C(C)(C)[C@@H]6CC[C@@]5(C)[C@]3(C)C[C@H]4O)nn2)[C@H](OC(C)=O)[C@@H](OC(C)=O)[C@H]1OC(C)=O | 30.6 | 24.3 | 20.4 | 66.5 |
| CC1(C)CC[C@]2(C(=O)NCc3cn([C@@H]4O[C@H](CO)[C@@H](O[C@H]5O[C@H](CO)[C@@H](O[C@H]6O[C@H](CO)[C@@H](O)[C@H](O)[C@H]6O)[C@H](O)[C@H]5O)[C@H](O)[C@H]4O)nn3)[C@H](O)C[C@]3(C)C(=CC[C@@H]4[C@@]5(C)CC[C@H](O)C(C)(C)[C@@H]5CC[C@]43C)[C@@H]2C1 | 27.4 | 19.7 | 12.8 | 39 |
| CC1(C)CC[C@]2(C(=O)NCc3cn([C@@H]4O[C@H](CO)[C@@H](O)[C@H](O)[C@H]4O)nn3)[C@H](O)C[C@]3(C)C(=CC[C@@H]4[C@@]5(C)CC[C@H](O)C(C)(C)[C@@H]5CC[C@]43C)[C@@H]2C1 | 19.1 | -15.2 | 12.4 | 33.1 |
| CC(=O)OC[C@H]1O[C@@H](OC(=O)[C@]23CCC(C)(C)C[C@H]2C2=CC[C@@H]4[C@@]5(C)CC[C@H](O)C(C)(C)[C@@H]5CC[C@@]4(C)[C@]2(C)C[C@H]3O)[C@H](OC(C)=O)[C@@H](OC(C)=O)[C@@H]1OC(C)=O | 13.9 | 3.7 | 35.7 | 78.3 |
| COC(=O)[C@]12CCC(C)(C)C[C@H]1C1=CC[C@@H]3[C@@]4(C)CC[C@H](OC)C(C)(C)[C@@H]4CC[C@@]3(C)[C@]1(C)C[C@H]2O | 30.1 | 9.9 | -14 | – |
